According to PMC4148164 (Journal of Medicinal Chemistry, 2014):

Tests used:
[1] = in biological milieu; estimated; cited from earlier work
[2] = test system: precontracted bovine coronary artery rings; assay: Vasorelaxation of U46619-precontracted bovine coronary artery rings; format: cell-based; details: for fold more potent than 14,15-EET as vasorelaxant (ED50): ratio of ED50 versus 14,15-EET

Molecule	fold more potent than 14,15-EET as vasorelaxant (ED50) [2] [fold]	other results
CCCCCC1OC1C/C=C\C/C=C\C/C=C\CCCC(=O)O (stereo not shown) [14,15-EET, 14,15-epoxyeicosa-5(Z),8(Z),11(Z)-trienoic acid]	–	half-life [1]: no more than seconds to minutes
CCCCCNC(=O)NCCCC/C=C\CCCCCNS(=O)(=O)c1ccccc1 [Compd 9]	–	improvement in the EC50 by a factor (versus parent free acid) ([2]; vasorelaxation EC50 compared with parent free acid): ~2
CCCCCNC(=O)NCCCC/C=C\CCCCCCc1nnn[nH]1 [Compd 19, 1-(12-(1H-Tetrazol-5-yl)dodec-5(Z)-en-1-yl)-3-pentylurea]	12	–
N1-Butyl-N2-(12-(2-oxido-3H-1,2,3,5-oxathiadiazol-4-yl)dodec-5(Z)-en-1-yl)oxalamide [Compd 25]	6	–
